Test results from US20240118281A1, “ANTICANCER COMPOUNDS AND USES THEREOF” (University of Florida Research Foundation, Incorporated, priority 2021, published 2024).

Assays:
[1] = biological target: T1, ERp44 (Homo sapiens, UniProt Q9BS26); test: Biotin-PyrDTDO/Streptavidin-agarose pulldown from treated cells; format: cell-based; design: endogenous in cells; host or cells: MDA-MB-468, BT474, T47D; details: for ERp44 in Streptavidin-Agarose pulldown: 100 μM, 16 h
T1 sequence (Q9BS26 30-406): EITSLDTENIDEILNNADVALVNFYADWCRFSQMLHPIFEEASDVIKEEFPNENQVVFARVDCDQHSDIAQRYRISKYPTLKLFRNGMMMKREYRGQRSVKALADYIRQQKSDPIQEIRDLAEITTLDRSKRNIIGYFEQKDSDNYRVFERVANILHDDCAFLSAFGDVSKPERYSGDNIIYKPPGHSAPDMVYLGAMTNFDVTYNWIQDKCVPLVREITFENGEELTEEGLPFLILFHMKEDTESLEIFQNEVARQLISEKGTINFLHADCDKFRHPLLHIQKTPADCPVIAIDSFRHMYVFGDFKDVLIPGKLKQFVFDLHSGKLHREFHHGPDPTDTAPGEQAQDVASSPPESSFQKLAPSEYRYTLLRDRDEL
Protocol: (§1) Cells were treated with Biotin-PyrDTDO with or without the pan-Caspase inhibitor Q-VD-OPH (MedChemExpress, Monmouth Junction, NJ) for 16 h in 10% FBS-DMEM, followed by the addition of 25 mM N-ethylmaleimide (NEM) (Thermo Scientific, Rockford, IL) for 20 min at 37° C. Cells were subsequently scraped directly into the media, washed twice with ice-cold PBS, and pelleted by centrifugation. Cells were extracted in buffer (20 mM HEPES (pH 7.4), 1 mM EDTA, 1mM EGTA, 5% Glycerol, 1 nM Microcystin, 1 mM Na3VO4, and 40 mM Na2H2P2O7) containing 1% Triton X-100. Samples were sonicated, followed by centrifugation for 20 min at 4° C. The supernatant was pre-cleared with Sepharose CL-6B (Amersham Biosciences AP, Uppsala, Sweden) for 2 h at 4° C. Pre-cleared samples were then incubated with Streptavidin (SA)-Agarose (Thermo Scientific, Rockford IL) and mixed on a Nutator for 24 h at 4° C. SA-Agarose was washed three times with extraction buffer containing 0.1% Triton X-100, followed by the addition of 2×-SDS Sample buffer containing 2 mM biotin. Samples were analyzed by immunoblot, silver stain, or probing with Streptavidin-Alkaline Phosphatase.

[2] = biological target: T2, PDIA1 (Homo sapiens, UniProt P07237); test: as above; format: cell-based; design: endogenous in cells; host or cells: MDA-MB-468, BT474, T47D; details: for PDIA1 in Streptavidin-Agarose pulldown: 100 μM, 16 h
Protocol: as §1

[3] = biological target: T3, ERp57 (Homo sapiens, UniProt P30101); test: as above; format: cell-based; details: FIG. 10A
T3 construct: endogenous in cells
Protocol: as §1

[4] = biological target: T4, ERp5 (Homo sapiens, UniProt Q15084); test: as above; format: cell-based; details: FIG. 10A
T4 construct: endogenous in cells
Protocol: as §1

[5] = biological target: T5, AGR2 (Homo sapiens, UniProt O95994); test: as above; format: cell-based; design: expressed in transfected cells; details: T47D and BT474 cells, 100 μM, 16 h, FIG. 3C left
T5 sequence (O95994 21-175): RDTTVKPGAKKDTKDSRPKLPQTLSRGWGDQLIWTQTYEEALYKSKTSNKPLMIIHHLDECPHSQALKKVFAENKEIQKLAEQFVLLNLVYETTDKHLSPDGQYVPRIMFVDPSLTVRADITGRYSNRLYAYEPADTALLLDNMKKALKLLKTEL
Protocol: as §1

[6] = biological target: T1, ERp44; test: In vitro binding assay with recombinant purified ERp44; details: FIG. 3D
Protocol: (§2) Purified His6-AGR2 or His6-AGR2 C81S, as prepared above, or His6-AGR2 (PRO-580) or His6-AGR3 (PRO-242) obtained from ProSpec (New Brunswick NJ) were incubated with or without varying concentrations of the unlabeled DDA competitors, tcyDTDO or dMtcyDTDO, and 30 μM Biotin-GlyPyrDTDO or Biotin-PyrDTDO in buffer (20 mM HEPES (pH 7.4), 1 mM EDTA, 1 mM EGTA, 5% Glycerol, 1 nM Microcystin, 1 mM Na3VO4, and 40 mM Na2H2P2O7) containing 1% Triton-X 100 for 30 min at 37° C. […] Therefore, the two probes were used interchangeably. Reactions were stopped by boiling the samples in 2×-SDS-Sample Buffer containing 100 mM NEM for 10 min. Biotin-DDA labeling of protein was verified by blotting with Streptavidin-Alkaline Phosphatase (Rockland Immunochemicals, Inc., Limerick, PA). ERp44 (PRO-547) and PDIA1 (ENZ-262) were obtained from ProSpec and used in experiments examining the binding of these proteins to Biotin-PyrDTDO.

[7] = test system: proteins in intact cells and purified proteins in vitro; test: Preliminary studies of biotinylated DDA protein labeling
Protocol: as §2

[8] = biological target: T2, PDIA1; test: In vitro binding assay with recombinant purified PDIA1; details: FIG. 3D
Protocol: as §2

[9] = biological target: T1, ERp44; test: ERp44 disulfide bonding with client proteins, non-reducing immunoblot; format: cell-based; design: endogenous in cells; host or cells: MDA-MB-468; details: MDA-MB-468 cells overexpressing wild type ERp44, 7.5 μM, 24 h, FIG. 6B
Protocol: (§3) To assess protein disulfide bond-mediated oligomerization, cells were treated with DDAs for 24 h in 10% FBS-DMEM. Cells were subsequently scraped directly into the media and pelleted by centrifugation. Cells were extracted directly into boiling 2×-SDS-Sample Buffer containing 100 mM NEM and boiled for 10 min. Samples were sonicated, followed by centrifugation for 20 min at room temperature. Samples were subsequently analyzed by SDS-PAGE and immunoblot.

[10] = test system: HER2+ BT474 xenograft tumors; test: BT474 xenograft tumor study, H&E staining of mammary fat pads/tumors; format: in vivo, mice; details: 20 mg/kg intraperitoneal, four consecutive days; vehicle tumors showed no necrosis
Protocol: Breast cancer liver metastasis was initiated in NOD-SCID-gamma (NSG) mice obtained from Jackson Laboratories (Bar Harbor, ME) by injecting 1×10^6 cancer cells into the #4 mammary fat pads as described previously (Wang M, et al. Cell Death Discovery 2019; 5: 153). Mice bearing HCI-001/LVM2 breast tumors were treated once daily for four consecutive days with 20 mg/kg tcyDTDO by oral gavage and livers were collected. Animals bearing HER2+ BT474 tumors were treated with the vehicle or 20 mg/kg dMtcyDTDO or dFtcyDTDO by intraperitoneal injection for four consecutive days. Tissue samples fixed in 4% paraformaldehyde/PBS and paraffin-embedded were sectioned and stained with hematoxylin and eosin (H&E) by the University of Florida Molecular Pathology Core (https://molecular.pathology.ufl.edu/).

[11] = test system: GRP78; test: Endoplasmic reticulum stress (ERS) induction, immunoblot; format: cell-based; details: MDA-MB-468 cells, 24 h
Text: (§4) The BT20, BT474, BT549, MCF7, MDA-MB-231, MDA-MB-436, MDA-MB-468, HCC1143, HCC1500, HCC1569, HCC1937, HCC1954, Hs578t, and T47D cells lines were purchased from American Type Culture Collection (ATCC) (Manassas, VA). The HCI-001 cell line was derived from an ER-/PR-/HER2- patient-derived xenograft originally isolated from a patient as described previously (DeRose Y S, et al. Nat Med 2011; 17: 1514-1520). The HCI-001/LVM2 model was derived from the HCI-001 cell line by performing two rounds of selection for liver metastasis, as described previously (Wang M, et al. Cell Death Discovery 2019; 5: 153). Cell lines were grown in Dulbecco's Modified Eagle's Medium (GE Healthcare Life Sciences, Logan, UT) containing 10% fetal bovine serum (10% FBS—DMEM) in a humidified incubator with 5% CO2 at 37° C. Cell lysates were prepared as described previously (Law B K, et al. Mol Cell Biol. 2002; 22: 8184-8198). Immunoblot analysis was performed utilizing the following antibodies purchased from Cell Signaling Technology (Beverly, MA) [Akt, #4691; P-Akt[T308], #13038; ATF4, #11815; CHOP, #2895; Cleaved Caspase 8, #9496; DR4, #42533; DR5, #8074; EGFR, #4267; GRP78, #3177; HER3, #4754; PARP, #9532; PDIA1, #3501; XBP1s, #12782], from Santa Cruz Biotechnology (Santa Cruz, CA) [Actin, sc-47778; AGR2/3, sc-376653; AGR3, sc-390940; ERO1-a, sc-100805; and ERp44, sc-393687], or from Rockland Immunochemicals, Inc. (Limerick, PA), Streptavidin-Alkaline Phosphatase conjugated (SA-AP), S000-05.
as §3

[12] = test system: MDA-MB-468 cells; test: Cell viability (MTT) assay; format: cell-based; details: FIG. 1D
Protocol: MTT (3-(4,5-dimethylthiazol-2-yl)-2,5-diphenyltetrazolium bromide) (Biomatik, Wilmington, DE) assays were performed by plating 7,500 cells/well in 10% FBS/DMEM in a 96-well plate, followed by incubation at 37° C. for 24 h. Cells were then treated with vehicle or increasing concentrations of tcyDTDO, dMtcyDTDO, or dFtcyDTDO and incubated at 37° C. for 72 h. Cell media was subsequently removed from each well and MTT assays were initiated by incubating cells with 0.5 mg/ml MTT in PBS for 3 h, followed by removal of the MTT solution and addition of 100 µL of DMSO to each well for 30 min. Absorbance of the MTT formazan product was subsequently measured at 570 and 690 (reference) nm in a plate reader.

[13] = test system: ERAP1; test: ERAP1 retention/secretion in MDA-MB-468 cells, immunoblot; format: cell-based; details: MDA-MB-468 stable cell lines expressing ERp44, 24 h, FIG. 4E
Text: as §4, §3

[14] = test system: DR5; test: Disulfide bond-mediated oligomerization and levels, non-reducing immunoblot; format: cell-based; details: MDA-MB-468 cells, 24 h
Text: as §4, §3

[15] = biological target: T6, ERp44 (Homo sapiens, UniProt Q9BS26, S61C); test: ERp44 disulfide bonding with client proteins, non-reducing immunoblot; format: cell-based; details: MDA-MB-468 cells overexpressing ERp44[S61C], 7.5 μM, 24 h, FIG. 6B
T6 construct: endogenous in cells; host or cells: MDA-MB-468
Protocol: as §3

[16] = test system: EGFR; test: Disulfide bond-mediated oligomerization, non-reducing immunoblot; format: cell-based; details: MDA-MB-468 cells, 24 h, FIG. 1E right
Text: as §4, §3

[17] = test system: DR4; test: as above; format: cell-based; details: MDA-MB-468 cells, 24 h
Text: as §4, §3

[18] = MDA-MB-468 cells, FIG. 3C right
[19] = T47D and BT474 cells, FIG. 3C left
[20] = compared with tcyDTDO, FIG. 1E left

T2 sequence (P07237 18-508): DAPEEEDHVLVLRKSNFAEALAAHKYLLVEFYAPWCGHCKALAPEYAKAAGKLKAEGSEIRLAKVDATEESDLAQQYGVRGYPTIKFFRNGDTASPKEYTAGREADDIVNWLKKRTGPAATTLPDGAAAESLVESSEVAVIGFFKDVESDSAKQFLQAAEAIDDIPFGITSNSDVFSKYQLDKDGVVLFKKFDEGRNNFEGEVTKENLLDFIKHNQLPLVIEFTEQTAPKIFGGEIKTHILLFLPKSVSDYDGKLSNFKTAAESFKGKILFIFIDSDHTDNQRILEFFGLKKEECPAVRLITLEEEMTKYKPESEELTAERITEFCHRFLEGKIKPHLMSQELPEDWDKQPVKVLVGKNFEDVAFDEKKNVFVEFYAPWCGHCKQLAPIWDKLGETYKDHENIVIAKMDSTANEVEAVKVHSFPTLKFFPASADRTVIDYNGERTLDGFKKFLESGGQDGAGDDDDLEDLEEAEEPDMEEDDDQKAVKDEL
T6 sequence (Q9BS26 30-406 S61C): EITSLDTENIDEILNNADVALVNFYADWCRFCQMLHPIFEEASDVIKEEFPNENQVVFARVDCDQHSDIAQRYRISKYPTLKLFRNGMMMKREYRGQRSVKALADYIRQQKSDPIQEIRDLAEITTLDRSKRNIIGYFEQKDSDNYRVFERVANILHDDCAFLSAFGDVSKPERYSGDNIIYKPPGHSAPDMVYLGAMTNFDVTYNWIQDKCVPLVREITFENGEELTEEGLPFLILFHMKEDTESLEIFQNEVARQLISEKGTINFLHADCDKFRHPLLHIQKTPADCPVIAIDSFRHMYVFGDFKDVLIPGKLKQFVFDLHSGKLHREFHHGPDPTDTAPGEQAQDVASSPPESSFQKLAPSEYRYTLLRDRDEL
T4 sequence (Q15084 20-440): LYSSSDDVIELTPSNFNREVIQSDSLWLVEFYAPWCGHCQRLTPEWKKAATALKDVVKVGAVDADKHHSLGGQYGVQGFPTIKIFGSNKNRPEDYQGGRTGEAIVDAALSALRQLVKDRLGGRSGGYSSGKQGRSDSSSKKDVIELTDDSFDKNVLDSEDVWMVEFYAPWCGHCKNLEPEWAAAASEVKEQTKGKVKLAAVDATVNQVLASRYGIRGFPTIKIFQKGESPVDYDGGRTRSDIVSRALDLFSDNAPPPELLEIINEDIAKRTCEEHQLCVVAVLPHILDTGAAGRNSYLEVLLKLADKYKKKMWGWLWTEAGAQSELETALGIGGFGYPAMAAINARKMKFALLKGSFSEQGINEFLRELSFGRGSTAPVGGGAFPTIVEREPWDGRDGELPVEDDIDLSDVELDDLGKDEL
T3 sequence (P30101 25-505): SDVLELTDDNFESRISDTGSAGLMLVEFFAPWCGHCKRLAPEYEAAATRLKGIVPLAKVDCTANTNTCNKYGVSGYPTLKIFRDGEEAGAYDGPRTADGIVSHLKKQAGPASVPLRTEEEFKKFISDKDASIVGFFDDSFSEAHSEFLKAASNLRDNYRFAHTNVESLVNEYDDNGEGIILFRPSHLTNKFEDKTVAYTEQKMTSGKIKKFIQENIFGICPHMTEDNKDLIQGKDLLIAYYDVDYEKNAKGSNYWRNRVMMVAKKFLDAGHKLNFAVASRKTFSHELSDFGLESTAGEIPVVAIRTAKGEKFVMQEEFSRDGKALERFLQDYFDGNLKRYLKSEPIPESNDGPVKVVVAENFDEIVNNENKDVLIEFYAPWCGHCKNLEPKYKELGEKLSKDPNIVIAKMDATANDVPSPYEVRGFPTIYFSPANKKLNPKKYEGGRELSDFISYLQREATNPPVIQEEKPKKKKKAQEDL

## O=C1N[C@H]2[C@H](CS[C@H]2CCCCC(=O)N2C[C@@H]3CS(=O)(=O)SC[C@H]3C2)N1 (mixture of isomers) [Biotin-PyrDTDO, (3aS,4S,6aR)-4-(5-((4aR,7aR) and (4aS,7aS)-2,2-dioxidotetrahydro-1H-[1,2]dithiino[4,5-c]pyrrol-6(4H)-yl)-5-oxopentyptetrahydro-1H-thieno[3,4-d]imidazol-2(3H)-one]
[1]; FIG. 10A
  ERp44 in additional pulldown experiments: detected
[1]; [18]
  ERp44 in Streptavidin-Agarose pulldown: affinity purified ERp44 and PDIA1
[1]; [19]
  ERp44 in Streptavidin-Agarose pulldown: isolated
[2]; FIG. 10A
  PDIA1 in additional pulldown experiments: detected
[2]; [18]
  PDIA1 in Streptavidin-Agarose pulldown: affinity purified ERp44 and PDIA1
[2]; [19]
  PDIA1 in Streptavidin-Agarose pulldown: isolated
[3]
  ERp57 in additional pulldown experiments: ERp57 and ERp5 were not
[4]
  ERp5 in additional pulldown experiments: ERp57 and ERp5 were not
[5]
  AGR2 in Streptavidin-Agarose pulldown: isolated
[6]
  Labeling of ERp44 by biotinylated DDA: labeled ERp44 and PDIA1
[7]
  Labeling of proteins, comparison of the two biotinylated probes: indistinguishable labeling of proteins in intact cells and purified proteins in vitro
[8]
  Labeling of PDIA1 by biotinylated DDA: labeled ERp44 and PDIA1

## O=S1(=O)CC2CC(F)C(F)CC2CS1 (centres unmarked) [dFtcyDTDO, difluoro-tcyDTDO]
[9]
  Disulfide bonding of overexpressed ERp44 to client proteins: partially blocked
[10]
  Tumors in mammary fat pads, H&E histology: tumors were not observed
[11]; FIG. 1E right
  Concentration at which induction of ERS (GRP78 elevation) was detected: 625 nM
[11]; [20]
  ERS at the same concentration: greater ERS
[12]
  Potency in cell viability assays relative to tcyDTDO: approximately two-fold greater potency than tcyDTDO
[13]
  ERAP1-ERp44 disulfide-bonded dimer: reduced
[14]; 7.5 μM, FIG. 6B
  DR5 upregulation in cells overexpressing C58S or S61C ERp44 mutants: potentiated DR5 upregulation
[14]; FIG. 1E right
  Concentration at which oligomerization of DR5 was observed: 1.25 µM
[14]; [20]
  DR4/5 oligomerization at the same concentration (DR5): more DR4/5 oligomerization
  DR5 levels at the same concentration: higher DR5 levels
[15]
  Disruption of S61C ERp44 mutant binding to its clients, versus wild type: less sensitive to disruption of binding to its clients
[16]
  Concentration at which disulfide-mediated oligomerization of EGFR was detected: 625 nM
[17]; FIG. 1E right
  Concentration at which disulfide-mediated oligomerization of DR4 was detected: 625 nM
[17]; [20]
  DR4/5 oligomerization at the same concentration (DR4): more DR4/5 oligomerization
